ChEMBL document CHEMBL1201862, “PubChem BioAssay data set” (2004)
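Interpolation was linear, between the two tested concentrations surrounding the appropriate level; five concentrations were tested over 48 hours in 96-well plates. GI50: concentration for 50% inhibition of growth.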 Calls of active or inactive are those of the source. Rule as the data show it: active = GI50 up to about 1.1 µM and inactive = higher.

Columns and labels:
Experiment in all cases: NCI-60 cell line screen, 48 h
HCT-15 = tested on: HCT-15
NCI-H226 = tested on: NCI-H226
A498 = tested on: A498
EKVX = tested on: EKVX
HOP-62 = tested on: HOP-62
SNB-75 = tested on: SNB-75
KM-20L2 = tested on: KM-20L2
UO-31 = tested on: UO-31
SR = tested on: SR
HT-29 = tested on: HT-29
HL-60 = tested on: HL-60
OVCAR-8 = tested on: OVCAR-8
IGROV-1 = tested on: IGROV-1
SN12C = tested on: SN12C
SNB-19 = tested on: SNB-19
ACHN = tested on: ACHN
SK-MEL-28 = tested on: SK-MEL-28
OVCAR-5 = tested on: OVCAR-5
PC-3 = tested on: PC-3
BT-549 = tested on: BT-549

| SMILES | GI50 (HCT-15) [µM] | GI50 (NCI-H226) | GI50 (A498) | GI50 (EKVX) | GI50 (HOP-62) | GI50 (SNB-75) | GI50 (KM-20L2) | GI50 (UO-31) | GI50 (SR) | GI50 (HT-29) | GI50 (HL-60) | GI50 (OVCAR-8) | GI50 (IGROV-1) | GI50 (SN12C) | GI50 (SNB-19) | GI50 (ACHN) | GI50 (SK-MEL-28) | GI50 (OVCAR-5) | GI50 (PC-3) | GI50 (BT-549) |
| --- | --- | --- | --- | --- | --- | --- | --- | --- | --- | --- | --- | --- | --- | --- | --- | --- | --- | --- | --- | --- |
| COc1ccc(S(=O)(=O)NNS(C)(=O)=O)cc1OC | > 100 | > 100 µM (inactive) | > 100 µM (inactive) | > 100 µM (inactive) | > 100 µM (inactive) | > 100 µM (inactive) | > 100 µM (inactive) | > 100 µM (inactive) | > 100 µM (inactive) | > 100 µM (inactive) | > 100 µM (inactive) | > 100 µM (inactive) | > 100 µM (inactive) | > 100 µM (inactive) | > 100 µM (inactive) | > 100 µM (inactive) | – | – | – | – |
| OC1=CN=COc2ccccc21 | > 100 | – | > 100 µM (inactive) | > 100 µM (inactive) | > 100 µM (inactive) | 32.3 µM (inactive) | > 100 µM (inactive) | 34.7 µM (inactive) | – | > 100 µM (inactive) | > 100 µM (inactive) | > 100 µM (inactive) | > 100 µM (inactive) | > 100 µM (inactive) | > 100 µM (inactive) | > 100 µM (inactive) | > 100 µM (inactive) | – | – | – |
| CCCCCCCCCCCCCP(=O)(NCC(N)=O)OCC (stereo not drawn) | 17.8 | 17.5 µM (inactive) | 35.6 µM (inactive) | 19.2 µM (inactive) | 17.3 µM (inactive) | 5.31 µM (inactive) | 17.4 µM (inactive) | 13.6 µM (inactive) | – | 17.2 µM (inactive) | 13.8 µM (inactive) | 21.4 µM (inactive) | 18.5 µM (inactive) | 18.3 µM (inactive) | 18.7 µM (inactive) | 21.8 µM (inactive) | 18.2 µM (inactive) | 19.5 µM (inactive) | – | – |
| CC[C@@H]1OC2(C)CC(S(=O)(=O)c3ccccc3)CC1O2 (stereo partly drawn) | > 100 | > 100 µM (inactive) | – | > 100 µM (inactive) | > 100 µM (inactive) | > 100 µM (inactive) | > 100 µM (inactive) | > 100 µM (inactive) | > 100 µM (inactive) | > 100 µM (inactive) | > 100 µM (inactive) | > 100 µM (inactive) | > 100 µM (inactive) | > 100 µM (inactive) | > 100 µM (inactive) | > 100 µM (inactive) | > 100 µM (inactive) | > 100 µM (inactive) | – | – |
| CC(=O)C1CC2(c3ccccc3)C(=O)c3ccccc3N2O1 (stereo not drawn) | > 100 | > 100 µM (inactive) | > 100 µM (inactive) | > 100 µM (inactive) | > 100 µM (inactive) | > 100 µM (inactive) | > 100 µM (inactive) | > 100 µM (inactive) | > 100 µM (inactive) | > 100 µM (inactive) | > 100 µM (inactive) | > 100 µM (inactive) | > 100 µM (inactive) | > 100 µM (inactive) | > 100 µM (inactive) | > 100 µM (inactive) | > 100 µM (inactive) | – | – | – |
| COCC(C)(C)/N=C/N1Cc2cc3ccccc3nc2C1 | > 100 | > 100 µM (inactive) | – | > 100 µM (inactive) | 93.8 µM (inactive) | > 100 µM (inactive) | > 100 µM (inactive) | > 100 µM (inactive) | > 100 µM (inactive) | > 100 µM (inactive) | > 100 µM (inactive) | > 100 µM (inactive) | > 100 µM (inactive) | > 100 µM (inactive) | > 100 µM (inactive) | > 100 µM (inactive) | > 100 µM (inactive) | – | – | – |
| CCOP(C)(=O)/C(Cc1ccc(OC)c(OC)c1)=N\O (stereo not drawn) | > 100 | > 100 µM (inactive) | > 100 µM (inactive) | > 100 µM (inactive) | > 100 µM (inactive) | > 100 µM (inactive) | – | > 100 µM (inactive) | > 100 µM (inactive) | > 100 µM (inactive) | > 100 µM (inactive) | > 100 µM (inactive) | > 100 µM (inactive) | > 100 µM (inactive) | > 100 µM (inactive) | > 100 µM (inactive) | > 100 µM (inactive) | > 100 µM (inactive) | > 100 µM (inactive) | > 100 µM (inactive) |
| O=C1/C(=C/c2ccccc2)CN(C(=O)Oc2ccccc2)C/C1=C\c1ccccc1 | 40.6 | – | 57.4 µM (inactive) | 62.2 µM (inactive) | 11.2 µM (inactive) | 4.91 µM (inactive) | > 100 µM (inactive) | 34.3 µM (inactive) | 7.19 µM (inactive) | > 100 µM (inactive) | 1.7 µM (inactive) | 28.2 µM (inactive) | 21.6 µM (inactive) | 65.3 µM (inactive) | 13.2 µM (inactive) | 21.9 µM (inactive) | > 100 µM (inactive) | > 100 µM (inactive) | – | – |
| CC12C(=O)N(CCN)C(=O)C1C1c3ccccc3C2c2ccccc21 (stereo not drawn) | > 100 | > 100 µM (inactive) | > 100 µM (inactive) | > 100 µM (inactive) | > 100 µM (inactive) | 37.3 µM (inactive) | > 100 µM (inactive) | > 100 µM (inactive) | – | 58.3 µM (inactive) | 77.8 µM (inactive) | > 100 µM (inactive) | > 100 µM (inactive) | > 100 µM (inactive) | > 100 µM (inactive) | > 100 µM (inactive) | > 100 µM (inactive) | > 100 µM (inactive) | – | – |
| COC1C2c3cc4c(cc3CC(C#N)(c3ccccc32)N1C(=O)c1ccccc1)OCO4 (stereo not drawn) | > 100 | 93.3 µM (inactive) | – | > 100 µM (inactive) | 48 µM (inactive) | > 100 µM (inactive) | > 100 µM (inactive) | 78.3 µM (inactive) | 54.7 µM (inactive) | > 100 µM (inactive) | > 100 µM (inactive) | > 100 µM (inactive) | > 100 µM (inactive) | > 100 µM (inactive) | > 100 µM (inactive) | > 100 µM (inactive) | > 100 µM (inactive) | > 100 µM (inactive) | – | – |
| CCOC(=O)C(C)(C)Oc1ccc2c(-c3ccc(Cl)cc3)cc(=O)oc2c1 | > 100 | > 100 µM (inactive) | > 100 µM (inactive) | > 100 µM (inactive) | > 100 µM (inactive) | 19.3 µM (inactive) | > 100 µM (inactive) | > 100 µM (inactive) | > 100 µM (inactive) | > 100 µM (inactive) | > 100 µM (inactive) | > 100 µM (inactive) | > 100 µM (inactive) | > 100 µM (inactive) | > 100 µM (inactive) | > 100 µM (inactive) | > 100 µM (inactive) | – | – | – |
| C[C@]12CC[C@@H]3c4ccc(OCC(=O)O)cc4CC[C@H]3[C@@H]1CCC2=O | > 100 | > 100 µM (inactive) | > 100 µM (inactive) | > 100 µM (inactive) | > 100 µM (inactive) | > 100 µM (inactive) | – | > 100 µM (inactive) | > 100 µM (inactive) | > 100 µM (inactive) | 0.13 µM (active) | > 100 µM (inactive) | > 100 µM (inactive) | > 100 µM (inactive) | > 100 µM (inactive) | > 100 µM (inactive) | > 100 µM (inactive) | > 100 µM (inactive) | > 100 µM (inactive) | > 100 µM (inactive) |
| Nc1ccc(Nc2nc(F)nc(-c3c4ccccc4c4n3CCS4)n2)cc1 | 10.1 | 11.6 µM (inactive) | – | 18.1 µM (inactive) | 16 µM (inactive) | 14.9 µM (inactive) | 18.1 µM (inactive) | 8.38 µM (inactive) | – | – | – | 16.8 µM (inactive) | 12.4 µM (inactive) | 15.5 µM (inactive) | 15.4 µM (inactive) | 12.7 µM (inactive) | 15.8 µM (inactive) | 17.6 µM (inactive) | – | – |
| Cc1cc(Cl)ccc1NC1=NC(=O)C(CC(=O)Nc2ccc([N+](=O)[O-])cc2[N+](=O)[O-])S1 (stereo not drawn) | 29.5 | – | 23.4 µM (inactive) | 38.6 µM (inactive) | 31.6 µM (inactive) | 14.5 µM (inactive) | 31.1 µM (inactive) | 17.1 µM (inactive) | – | 37 µM (inactive) | – | 34.1 µM (inactive) | 32.3 µM (inactive) | 26.9 µM (inactive) | 26.9 µM (inactive) | 25.1 µM (inactive) | 36.8 µM (inactive) | 24.2 µM (inactive) | – | – |
| C[C@@H]1C2=CC[C@@]3(C)C(CCC3[C@H](C)[C@H]3C[C@@]4(C)O[C@@](c5cccnc5)(O3)OC4(C)C)[C@@H]2C2OC2[C@@]12CCC(=O)O2 (stereo partly drawn) | 32.1 | – | > 100 µM (inactive) | – | 66.7 µM (inactive) | 34 µM (inactive) | 31.8 µM (inactive) | 34.4 µM (inactive) | 9.4 µM (inactive) | 34.6 µM (inactive) | 17 µM (inactive) | 32.4 µM (inactive) | 76.6 µM (inactive) | 33 µM (inactive) | 49.1 µM (inactive) | 46.5 µM (inactive) | 90.8 µM (inactive) | 57.4 µM (inactive) | – | – |
| NC(=O)c1ccc(N)nc1 [6-AMINONICOTINAMIDE] | 17.5 | 35.7 µM (inactive) | 14.9 µM (inactive) | 21.7 µM (inactive) | 12 µM (inactive) | 15.6 µM (inactive) | – | 29.4 µM (inactive) | 14.3 µM (inactive) | 3.93 µM (inactive) | 53.3 µM (inactive) | 17.6 µM (inactive) | 108 µM (inactive) | 15.9 µM (inactive) | 14.7 µM (inactive) | 54.3 µM (inactive) | 3.37 µM (inactive) | > 322 µM (inactive) | 29.7 µM (inactive) | 14.1 µM (inactive) |
